Tests used:
dGMII [1] = biological target: T1, dGMII (Drosophila melanogaster, UniProt Q24451); test: binding affinity of inhibitors for dGMII; conditions: relative to DMNJ; data not shown
T1 sequence (Q24451 1-1108): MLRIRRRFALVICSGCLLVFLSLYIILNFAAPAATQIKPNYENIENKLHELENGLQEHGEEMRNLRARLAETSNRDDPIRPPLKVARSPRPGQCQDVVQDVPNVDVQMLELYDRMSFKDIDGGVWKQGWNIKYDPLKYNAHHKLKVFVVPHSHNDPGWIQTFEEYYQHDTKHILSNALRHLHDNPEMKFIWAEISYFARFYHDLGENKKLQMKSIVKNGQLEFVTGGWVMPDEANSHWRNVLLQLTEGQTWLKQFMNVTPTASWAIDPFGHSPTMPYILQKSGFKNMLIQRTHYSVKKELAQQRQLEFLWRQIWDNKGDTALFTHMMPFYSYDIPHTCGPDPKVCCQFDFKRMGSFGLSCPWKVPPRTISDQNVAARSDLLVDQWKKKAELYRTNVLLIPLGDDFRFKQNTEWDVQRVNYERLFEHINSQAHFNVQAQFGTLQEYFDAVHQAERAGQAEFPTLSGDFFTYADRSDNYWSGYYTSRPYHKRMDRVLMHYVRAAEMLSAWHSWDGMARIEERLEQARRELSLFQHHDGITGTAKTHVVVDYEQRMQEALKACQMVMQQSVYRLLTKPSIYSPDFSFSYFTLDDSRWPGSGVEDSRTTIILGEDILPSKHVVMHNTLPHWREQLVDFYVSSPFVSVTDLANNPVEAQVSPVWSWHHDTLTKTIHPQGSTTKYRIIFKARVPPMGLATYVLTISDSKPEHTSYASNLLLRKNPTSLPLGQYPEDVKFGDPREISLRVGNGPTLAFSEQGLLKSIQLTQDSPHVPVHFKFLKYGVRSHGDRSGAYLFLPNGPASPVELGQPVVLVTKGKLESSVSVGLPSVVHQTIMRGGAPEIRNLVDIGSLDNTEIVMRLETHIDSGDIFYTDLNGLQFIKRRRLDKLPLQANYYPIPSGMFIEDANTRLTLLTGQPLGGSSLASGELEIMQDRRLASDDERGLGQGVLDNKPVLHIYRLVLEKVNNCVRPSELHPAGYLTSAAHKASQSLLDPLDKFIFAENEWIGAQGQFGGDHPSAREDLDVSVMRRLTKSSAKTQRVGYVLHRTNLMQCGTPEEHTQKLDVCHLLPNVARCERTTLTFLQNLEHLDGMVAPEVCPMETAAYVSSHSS

[2] = system: Drosophila Schneider (S2) cells; test: viability of induced S2 cells by Trypan blue exclusion; assay type: cell-based; conditions: 10-20 μM cadmium, until the end of the induction period
Procedure: Initial experiments were carried out in S2 medium containing 10% bovine serum. Metal concentrations used to induce and time of induction were optimized for dGMII production. […] Cadmium has been reported to be detrimental to the growth of cells. However, at the concentrations used here, the cells continued to grow and maintain greater than 90% viability (as assessed by Trypan blue exclusion) until the end of the induction period. Cells were maintained in the continous presence of cadmium for up to three passages.

mouse GMII = biological target: T2, mouse GMII (Mus musculus, UniProt P27046); conditions: Rabouille et al., 1999; cited from earlier work
T2 sequence (P27046 1-1150): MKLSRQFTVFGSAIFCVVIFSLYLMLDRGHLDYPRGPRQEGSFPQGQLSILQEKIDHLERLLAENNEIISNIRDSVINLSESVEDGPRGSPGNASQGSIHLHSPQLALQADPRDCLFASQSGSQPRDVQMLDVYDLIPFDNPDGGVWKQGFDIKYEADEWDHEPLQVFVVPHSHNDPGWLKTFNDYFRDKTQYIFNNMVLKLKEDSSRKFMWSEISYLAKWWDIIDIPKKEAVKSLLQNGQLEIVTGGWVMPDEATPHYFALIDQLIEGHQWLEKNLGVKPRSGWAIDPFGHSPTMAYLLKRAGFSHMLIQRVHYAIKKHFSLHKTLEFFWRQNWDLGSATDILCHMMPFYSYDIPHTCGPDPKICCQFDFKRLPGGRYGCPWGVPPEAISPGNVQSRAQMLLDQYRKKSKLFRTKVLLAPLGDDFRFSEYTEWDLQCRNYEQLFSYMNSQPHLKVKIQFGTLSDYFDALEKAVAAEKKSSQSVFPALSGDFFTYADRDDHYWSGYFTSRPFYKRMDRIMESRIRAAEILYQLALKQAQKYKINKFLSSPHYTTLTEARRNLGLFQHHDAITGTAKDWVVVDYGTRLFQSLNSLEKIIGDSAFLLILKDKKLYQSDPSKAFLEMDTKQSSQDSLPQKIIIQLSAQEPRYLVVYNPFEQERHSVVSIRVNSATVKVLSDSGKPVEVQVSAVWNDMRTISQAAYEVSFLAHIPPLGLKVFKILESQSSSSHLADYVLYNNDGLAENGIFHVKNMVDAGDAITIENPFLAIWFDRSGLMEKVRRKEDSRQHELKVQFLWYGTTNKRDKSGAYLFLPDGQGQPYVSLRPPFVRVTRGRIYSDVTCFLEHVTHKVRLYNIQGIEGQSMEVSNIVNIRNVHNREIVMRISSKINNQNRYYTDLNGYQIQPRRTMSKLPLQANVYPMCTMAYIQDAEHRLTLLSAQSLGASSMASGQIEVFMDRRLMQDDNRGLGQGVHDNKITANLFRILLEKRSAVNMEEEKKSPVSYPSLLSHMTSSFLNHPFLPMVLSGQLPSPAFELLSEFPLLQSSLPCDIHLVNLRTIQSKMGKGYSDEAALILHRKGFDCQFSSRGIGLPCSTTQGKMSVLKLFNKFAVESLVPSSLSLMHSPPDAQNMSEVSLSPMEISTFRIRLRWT

dGMII [3] = biological target: T3, dGMII (Drosophila melanogaster, UniProt Q24451); conditions: cited from earlier work
T3 construct: The resulting constructs consist of the dGMII catalytic region with a short length of the stalk region; Bip secretion signal (N); made in house; host or cells: Drosophila Schneider S2 cells, stably transfected, protein secreted into the medium
T3 sequence (Q24451 76-1108): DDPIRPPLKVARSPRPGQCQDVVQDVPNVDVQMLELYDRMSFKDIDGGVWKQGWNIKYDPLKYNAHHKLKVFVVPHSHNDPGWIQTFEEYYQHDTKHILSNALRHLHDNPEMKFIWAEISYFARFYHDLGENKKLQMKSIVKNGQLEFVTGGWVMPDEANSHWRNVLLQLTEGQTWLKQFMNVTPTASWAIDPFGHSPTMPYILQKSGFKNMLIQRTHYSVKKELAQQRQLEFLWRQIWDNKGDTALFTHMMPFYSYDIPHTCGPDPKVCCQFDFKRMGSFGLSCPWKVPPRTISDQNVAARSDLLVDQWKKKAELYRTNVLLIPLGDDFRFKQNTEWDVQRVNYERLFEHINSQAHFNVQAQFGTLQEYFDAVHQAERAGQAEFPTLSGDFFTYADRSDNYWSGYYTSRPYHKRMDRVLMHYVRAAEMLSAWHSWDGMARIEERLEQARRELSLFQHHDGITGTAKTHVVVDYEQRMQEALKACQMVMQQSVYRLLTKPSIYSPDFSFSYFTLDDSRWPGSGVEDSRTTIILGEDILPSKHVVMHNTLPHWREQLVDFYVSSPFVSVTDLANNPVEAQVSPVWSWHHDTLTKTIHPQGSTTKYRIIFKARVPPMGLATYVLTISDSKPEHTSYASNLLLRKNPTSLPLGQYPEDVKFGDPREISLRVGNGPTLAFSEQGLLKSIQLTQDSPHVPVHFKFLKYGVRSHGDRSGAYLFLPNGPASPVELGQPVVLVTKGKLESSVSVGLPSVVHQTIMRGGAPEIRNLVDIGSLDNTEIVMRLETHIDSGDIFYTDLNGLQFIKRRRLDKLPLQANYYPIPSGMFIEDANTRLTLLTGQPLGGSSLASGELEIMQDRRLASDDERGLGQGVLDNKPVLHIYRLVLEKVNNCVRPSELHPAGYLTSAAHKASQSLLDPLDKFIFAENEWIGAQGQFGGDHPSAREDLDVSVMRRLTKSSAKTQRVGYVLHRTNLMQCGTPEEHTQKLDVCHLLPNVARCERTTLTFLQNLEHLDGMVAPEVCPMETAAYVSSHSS

SMILES: O[C@H]1[C@H]2[C@H](O)CCCN2C[C@H]1O [swainsonine]
- binding affinity for the enzyme, compared to the substrate-mimic DMNJ (dGMII [1]): 10,000 times higher

SMILES: [Cd] [Cadmium]
- cell viability (Trypan blue exclusion) [2]: greater than 90%

SMILES: [Cu+2] [copper]
- inactivation of mouse GMII (mouse GMII): effectively inactivate
- inactivation of Drosophila GMII (dGMII [3]; Rabouille et al., 1999): effectively inactivate
- IC50 (dGMII [3]; read-out: inhibition of dGMII by copper, IC50): 25 µM

SMILES: NC(CO)(CO)CO [Tris, tris(hydroxymethyl)-aminomethane, reference compound]
- inhibition of dGMII activity (dGMII [3]; Rabouille et al., 1999): inhibit

Source: patent publication US20020172670A1 (priority 2000, published 2002)
